Measured values taken from patent US4052455A, “Styrylamidines” (Mead Johnson & Company, priority 1975, dated 1977).

What was measured:
[1] = system: phenylquinone writhing syndrome; experiment: Phenylquinone writhing test (analgesic activity); type: in vivo; conditions: mice
Protocol: In this test, groups of 10-20 mice are injected subcutaneously or orally with different doses of the test compound. At predetermined time intervals, the mice receive 2.5 mg./kg. phenylquinone intraperitoneally. The total number of writhing episodes is counted for each mouse for 10 min. and the average percent decrease in writhing recorded for each dose.
The novel styrylsulfonylamidines of Formula V in addition to being useful as precursors to the styrylamidine products of Formula I have analgesic utility as measured in the foregoing phenylquinone writhing test. A preferred class of styrylsulfonylamidines of Formula V having particularly significant analgesic activity are those wherein R1 and R2 are each hydrogen, nitro or halogen and A is phenyl or lower alkyl of from 1 to 8 carbon atoms inclusive. Analgesic activity at the time interval indicated following administration of compounds representative of this class are given in Table I below.

CNS = CNS effects after oral or intraperitoneal administration to the mouse; type: in vivo
Protocol: 5,6-Dihydro-4-methyl-5-(4-nitrophenyl)-3-phenyl-4H-1,2,4-thiadiazine 1,1-dioxide was not effective in preventing the phenylquinone writhing syndrome in mice at an oral dose of 100 mg./kg. body weight or subcutaneous dose of 6 mg./kg. body weight.

blood pressure [2] = experiment: Blood pressure in spontaneous hypertensive rat; type: in vivo; conditions: 50 mg./kg.
Protocol: (§1) For instance, at 1.0 mg./kg. body weight, this compound provides a 33% reduction in blood pressure while at 10.0 mg./kg. body weight, a 64% reduction in blood pressure is obtained. In the same test procedure, the prior art cinnamylamidine, N-(4-chlorocinnamyl)acetamidine, provided a 12% increase in blood pressure with a 6% decrease in heart rate at a dose of 1.0 mg./kg. body weight. At a dose of 10.0 mg./kg. body weight, the prior art cinnamylamidine provides an increase of 26% in blood pressure.

blood pressure [3] = experiment: Blood pressure and heart rate in anesthetized normotensive dog; type: in vivo
Protocol: as §1

[4] = as reported in U.S. Pat. No. 3,413,345; cited from earlier work
urine output = experiment: Lipschitz diuretic test; type: in vivo; conditions: oral dose 30 mg./kg. body weight
Excerpt: N-(2,6-dichlorostyryl)acetamidine is orally effective as a diuretic agent according to the W. L. Lipschitz, et al., J. Pharmacol. Expt.

mouse electroshock = experiment: Mouse electroshock test of Swinyard (anticonvulsant); type: in vivo; conditions: 250 mg./kg. body weight
Excerpt: Aside from antithrombogenic and analgesic effects, compounds of Formula I wherein R1 and R2 substituents are halogen (particularly chlorine), R3 is hydrogen or methyl and A is selected from the group consisting of lower alkyl of from 1 to 8 carbon atoms inclusive or cycloalkyl of from 3 to 6 carbon atoms inclusive, are useful as anticonvulsant, hypotensive and antihypertensive agents. […] For example, N-(2,6-dichlorostyryl)acetamidine in the mouse electroshock test of E. A. Swinyard, J. Amer. Pharm.

| Compound | Prevention of the phenylquinone writhing syndrome ([1]; oral dose 100 mg./kg. body weight) | Prevention of the phenylquinone writhing syndrome ([1]; subcutaneous dose 6 mg./kg. body weight) | CNS effect (CNS) | Antihypertensive effect (blood pressure [2]) | Change in blood pressure (blood pressure [2]) | Decrease in heart rate (blood pressure [3]; 1.0 mg./kg.) [%] | Increase in blood pressure (blood pressure [3]; 1.0 mg./kg.) [%] | Increase in blood pressure (blood pressure [3]; 10.0 mg./kg.) [%] | Hypotensive effect [4] | Diuretic activity (urine output) | Activity in mouse electroshock test (mouse electroshock) |
| --- | --- | --- | --- | --- | --- | --- | --- | --- | --- | --- | --- |
| CN1C(c2ccccc2)=NS(=O)(=O)CC1c1ccc([N+](=O)[O-])cc1 (centres unmarked) [5,6-dihydro-4-methyl-5-(4-nitrophenyl)-3-phenyl-4H-1,2,4-thiadiazine 1,1-dioxide] | not effective | not effective | non-specific CNS depression | – | – | – | – | – | – | – | – |
| CC(=N)NCC=Cc1ccc(Cl)cc1 [N-(4-chlorocinnamyl)acetamidine, reference compound] | – | – | – | devoid of antihypertensive effects | slight increase in blood pressure | 6 | 12 | 26 | hypotensive effects which are quick in onset and of considerable duration | essentially inactive | completely inactive |
